Format in all cases: biochemical
Experiment [1] addresses ROCK-I (Homo sapiens, UniProt Q13464). Description: Radiometric kinase activity. The note with it: ± S.D. between two samples, SD.
The target in experiment [2] is T1, MK5 (Homo sapiens, UniProt Q8IW41).
T1 sequence (Q8IW41 1-473): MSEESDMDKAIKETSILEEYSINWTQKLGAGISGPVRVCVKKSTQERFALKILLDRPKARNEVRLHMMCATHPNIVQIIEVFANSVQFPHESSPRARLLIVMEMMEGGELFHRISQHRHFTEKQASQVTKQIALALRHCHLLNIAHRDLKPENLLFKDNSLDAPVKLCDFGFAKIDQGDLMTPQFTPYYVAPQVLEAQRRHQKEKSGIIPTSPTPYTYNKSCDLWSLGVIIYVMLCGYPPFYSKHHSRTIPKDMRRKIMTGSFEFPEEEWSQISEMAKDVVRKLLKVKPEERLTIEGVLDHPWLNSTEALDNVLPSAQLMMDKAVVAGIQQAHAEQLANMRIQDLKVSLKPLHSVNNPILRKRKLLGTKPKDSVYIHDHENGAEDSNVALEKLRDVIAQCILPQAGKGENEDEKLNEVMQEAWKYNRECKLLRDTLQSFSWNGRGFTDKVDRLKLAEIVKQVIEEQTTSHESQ
In words: Radiometric kinase activity. The note with it: ± S.D. between two samples, SD.

Experiment [3] addresses PKCδ (Homo sapiens, UniProt Q05655). Description: Radiometric kinase activity. The settings on record: ± S.D. between two samples, SD.
Experiment [4] deals with T2, MK2 (Homo sapiens, UniProt P49137). In words: Radiometric IC50 determination.
Experiment [5] has as its target MLCK (Homo sapiens, UniProt Q9H1R3). Description: Radiometric kinase activity. The note with it: ± S.D. between two samples, SD.
For experiment [6], the target named is CaMKI (Homo sapiens, UniProt Q14012). Description: Radiometric kinase activity. The settings on record: ± S.D. between two samples, SD.
Experiment [7] concerns the target PKBβ (Homo sapiens, UniProt P31751). Description: Radiometric kinase activity. The settings on record: SD; for Percentage kinase activity, PKBβ: peptide 300 μM, ± S.D. between two samples.
For experiment [8], the target named is T3, IRAK4 (Homo sapiens, UniProt Q9NWZ3).
T3 sequence (Q9NWZ3 1-460): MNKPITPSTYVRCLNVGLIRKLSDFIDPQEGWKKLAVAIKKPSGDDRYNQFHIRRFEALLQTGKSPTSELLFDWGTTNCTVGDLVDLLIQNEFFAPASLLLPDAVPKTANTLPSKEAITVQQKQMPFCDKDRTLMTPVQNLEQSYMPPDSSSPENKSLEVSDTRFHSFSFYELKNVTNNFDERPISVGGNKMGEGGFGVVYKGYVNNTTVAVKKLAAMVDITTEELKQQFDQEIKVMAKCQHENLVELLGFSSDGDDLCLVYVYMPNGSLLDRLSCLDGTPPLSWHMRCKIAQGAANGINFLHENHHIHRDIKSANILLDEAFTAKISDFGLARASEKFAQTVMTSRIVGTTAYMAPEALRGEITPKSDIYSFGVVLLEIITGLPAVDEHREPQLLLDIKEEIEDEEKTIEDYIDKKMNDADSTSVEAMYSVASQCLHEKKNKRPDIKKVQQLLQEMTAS
In words: Radiometric kinase activity. The settings on record: ± S.D. between two samples, SD.

The target in experiment [9] is MK3 (Homo sapiens, UniProt Q16644). Description: Radiometric kinase activity. The note with it: ± S.D. between two samples, SD.
Experiment [10] concerns the target T2, MK2. In words: Radiometric kinase activity. The note with it: ± S.D. between two samples, SD.
For experiment [11], the target named is SAPK2a (p38α) (Homo sapiens, UniProt Q16539). Description: Radiometric kinase activity. The note with it: ± S.D. between two samples, SD.
Experiment [12] deals with T2, MK2. In words: Fluorescence-based kinase activity assay.
Where [13] appears, read: read-out: Percentage kinase activity, PKBβ.

PKBβ, sequence (P31751 whole entry): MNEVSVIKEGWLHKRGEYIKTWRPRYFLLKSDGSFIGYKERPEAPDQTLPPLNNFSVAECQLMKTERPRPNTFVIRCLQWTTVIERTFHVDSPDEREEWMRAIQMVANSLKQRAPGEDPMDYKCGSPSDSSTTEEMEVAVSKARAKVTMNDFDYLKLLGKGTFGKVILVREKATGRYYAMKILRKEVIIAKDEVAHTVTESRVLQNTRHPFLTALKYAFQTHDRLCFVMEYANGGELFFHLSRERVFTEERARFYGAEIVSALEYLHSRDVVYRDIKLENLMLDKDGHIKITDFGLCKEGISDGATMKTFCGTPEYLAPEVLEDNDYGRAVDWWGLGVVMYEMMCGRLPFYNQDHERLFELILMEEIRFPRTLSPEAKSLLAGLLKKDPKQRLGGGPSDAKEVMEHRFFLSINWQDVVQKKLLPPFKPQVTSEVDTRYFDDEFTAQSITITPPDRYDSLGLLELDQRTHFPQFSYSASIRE
T2 sequence (P49137 whole entry): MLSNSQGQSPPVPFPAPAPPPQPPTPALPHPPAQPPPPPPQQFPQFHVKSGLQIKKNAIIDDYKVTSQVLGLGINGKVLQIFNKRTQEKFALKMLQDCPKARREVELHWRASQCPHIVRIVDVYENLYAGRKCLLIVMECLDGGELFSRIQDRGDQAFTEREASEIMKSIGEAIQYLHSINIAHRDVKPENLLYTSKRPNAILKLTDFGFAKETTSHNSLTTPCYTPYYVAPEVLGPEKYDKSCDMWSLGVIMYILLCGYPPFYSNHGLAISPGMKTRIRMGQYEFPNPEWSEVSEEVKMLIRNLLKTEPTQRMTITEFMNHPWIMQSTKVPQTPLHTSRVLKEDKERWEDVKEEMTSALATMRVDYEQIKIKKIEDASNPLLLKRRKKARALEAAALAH
MLCK, sequence (Q9H1R3 2-596): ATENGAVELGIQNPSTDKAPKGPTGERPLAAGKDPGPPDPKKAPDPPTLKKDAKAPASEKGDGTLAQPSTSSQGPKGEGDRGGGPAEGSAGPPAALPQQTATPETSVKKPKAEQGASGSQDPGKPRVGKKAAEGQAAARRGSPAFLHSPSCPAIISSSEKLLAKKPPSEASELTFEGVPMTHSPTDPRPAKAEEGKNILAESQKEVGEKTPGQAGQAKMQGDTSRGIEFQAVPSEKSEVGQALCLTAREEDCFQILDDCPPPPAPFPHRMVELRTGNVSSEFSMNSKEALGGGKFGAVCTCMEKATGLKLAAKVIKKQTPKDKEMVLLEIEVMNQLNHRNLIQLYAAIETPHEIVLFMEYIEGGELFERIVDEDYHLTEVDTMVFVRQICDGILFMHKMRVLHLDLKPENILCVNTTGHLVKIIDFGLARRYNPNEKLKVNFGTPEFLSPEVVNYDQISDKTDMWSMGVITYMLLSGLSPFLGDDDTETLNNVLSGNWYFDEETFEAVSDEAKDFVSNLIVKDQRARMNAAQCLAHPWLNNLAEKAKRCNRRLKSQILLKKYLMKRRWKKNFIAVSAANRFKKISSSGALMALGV
PKCδ, sequence (Q05655 whole entry): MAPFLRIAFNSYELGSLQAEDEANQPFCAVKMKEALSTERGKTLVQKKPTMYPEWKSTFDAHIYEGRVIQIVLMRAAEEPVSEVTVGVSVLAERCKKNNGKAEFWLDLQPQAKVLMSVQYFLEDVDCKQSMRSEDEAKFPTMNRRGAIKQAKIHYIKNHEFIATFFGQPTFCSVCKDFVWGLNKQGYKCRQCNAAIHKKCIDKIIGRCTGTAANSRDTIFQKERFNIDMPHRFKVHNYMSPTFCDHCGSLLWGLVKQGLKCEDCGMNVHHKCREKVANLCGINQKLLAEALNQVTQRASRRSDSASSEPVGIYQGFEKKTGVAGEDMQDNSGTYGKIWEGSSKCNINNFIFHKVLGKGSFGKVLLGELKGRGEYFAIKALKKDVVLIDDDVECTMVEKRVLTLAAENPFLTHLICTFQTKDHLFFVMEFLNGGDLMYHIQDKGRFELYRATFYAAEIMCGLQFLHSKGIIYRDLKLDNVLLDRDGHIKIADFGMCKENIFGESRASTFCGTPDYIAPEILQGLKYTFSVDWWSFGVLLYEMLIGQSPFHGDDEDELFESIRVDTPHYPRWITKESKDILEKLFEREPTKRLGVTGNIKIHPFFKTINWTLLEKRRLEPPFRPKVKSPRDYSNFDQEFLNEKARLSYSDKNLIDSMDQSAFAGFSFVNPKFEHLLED
MK3, sequence (Q16644 whole entry): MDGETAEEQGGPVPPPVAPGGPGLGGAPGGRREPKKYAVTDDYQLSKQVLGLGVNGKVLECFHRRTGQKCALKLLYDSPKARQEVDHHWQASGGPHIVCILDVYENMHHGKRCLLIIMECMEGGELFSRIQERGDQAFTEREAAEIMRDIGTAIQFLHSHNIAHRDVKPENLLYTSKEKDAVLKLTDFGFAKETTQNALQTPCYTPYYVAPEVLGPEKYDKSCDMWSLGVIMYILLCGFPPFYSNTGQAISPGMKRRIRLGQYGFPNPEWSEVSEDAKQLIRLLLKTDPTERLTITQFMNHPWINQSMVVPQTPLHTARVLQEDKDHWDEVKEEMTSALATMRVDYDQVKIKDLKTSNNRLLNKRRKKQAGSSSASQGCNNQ
SAPK2a (p38α), sequence (Q16539 whole entry): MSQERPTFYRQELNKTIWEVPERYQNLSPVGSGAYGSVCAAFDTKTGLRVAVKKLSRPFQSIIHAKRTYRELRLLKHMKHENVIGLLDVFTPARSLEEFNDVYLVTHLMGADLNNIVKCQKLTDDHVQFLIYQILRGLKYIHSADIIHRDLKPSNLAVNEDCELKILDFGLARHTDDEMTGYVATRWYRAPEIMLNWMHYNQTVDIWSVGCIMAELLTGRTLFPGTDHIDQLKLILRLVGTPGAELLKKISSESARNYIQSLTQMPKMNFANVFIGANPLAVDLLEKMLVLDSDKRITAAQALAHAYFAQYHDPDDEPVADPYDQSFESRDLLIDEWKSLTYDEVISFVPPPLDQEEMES
ROCK-I, sequence (Q13464 whole entry): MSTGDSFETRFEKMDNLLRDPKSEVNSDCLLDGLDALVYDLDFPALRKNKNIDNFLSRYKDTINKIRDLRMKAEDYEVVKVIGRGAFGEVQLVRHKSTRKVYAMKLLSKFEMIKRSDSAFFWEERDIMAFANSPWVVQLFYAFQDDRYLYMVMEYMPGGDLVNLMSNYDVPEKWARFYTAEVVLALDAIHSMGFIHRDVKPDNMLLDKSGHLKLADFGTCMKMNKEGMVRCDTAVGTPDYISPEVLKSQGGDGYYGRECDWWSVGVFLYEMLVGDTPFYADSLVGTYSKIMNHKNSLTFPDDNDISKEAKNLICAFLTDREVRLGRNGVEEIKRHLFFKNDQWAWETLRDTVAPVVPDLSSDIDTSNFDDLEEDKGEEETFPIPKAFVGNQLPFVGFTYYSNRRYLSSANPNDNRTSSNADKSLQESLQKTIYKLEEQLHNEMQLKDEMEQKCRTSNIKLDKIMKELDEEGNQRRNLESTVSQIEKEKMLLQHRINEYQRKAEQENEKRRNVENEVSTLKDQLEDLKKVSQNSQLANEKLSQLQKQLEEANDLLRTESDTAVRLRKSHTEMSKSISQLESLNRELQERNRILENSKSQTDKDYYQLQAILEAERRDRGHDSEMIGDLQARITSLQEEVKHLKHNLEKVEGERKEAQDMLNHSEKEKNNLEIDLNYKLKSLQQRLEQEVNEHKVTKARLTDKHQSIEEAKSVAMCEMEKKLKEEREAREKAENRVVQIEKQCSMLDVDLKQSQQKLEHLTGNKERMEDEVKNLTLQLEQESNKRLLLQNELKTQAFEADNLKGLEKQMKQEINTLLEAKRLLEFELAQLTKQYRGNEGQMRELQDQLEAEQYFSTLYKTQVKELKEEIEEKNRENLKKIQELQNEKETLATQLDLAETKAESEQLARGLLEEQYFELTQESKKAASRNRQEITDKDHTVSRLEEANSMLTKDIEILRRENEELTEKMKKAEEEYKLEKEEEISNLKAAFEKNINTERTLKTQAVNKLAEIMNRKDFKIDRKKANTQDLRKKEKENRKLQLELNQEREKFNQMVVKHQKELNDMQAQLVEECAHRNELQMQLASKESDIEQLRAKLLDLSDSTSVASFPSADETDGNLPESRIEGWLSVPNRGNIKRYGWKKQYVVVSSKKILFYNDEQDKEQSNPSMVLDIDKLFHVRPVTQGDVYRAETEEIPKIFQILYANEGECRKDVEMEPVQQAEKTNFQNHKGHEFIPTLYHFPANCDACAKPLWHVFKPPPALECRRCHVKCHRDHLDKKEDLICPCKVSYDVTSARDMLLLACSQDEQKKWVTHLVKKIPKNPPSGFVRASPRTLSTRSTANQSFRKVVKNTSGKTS
CaMKI, sequence (Q14012 whole entry): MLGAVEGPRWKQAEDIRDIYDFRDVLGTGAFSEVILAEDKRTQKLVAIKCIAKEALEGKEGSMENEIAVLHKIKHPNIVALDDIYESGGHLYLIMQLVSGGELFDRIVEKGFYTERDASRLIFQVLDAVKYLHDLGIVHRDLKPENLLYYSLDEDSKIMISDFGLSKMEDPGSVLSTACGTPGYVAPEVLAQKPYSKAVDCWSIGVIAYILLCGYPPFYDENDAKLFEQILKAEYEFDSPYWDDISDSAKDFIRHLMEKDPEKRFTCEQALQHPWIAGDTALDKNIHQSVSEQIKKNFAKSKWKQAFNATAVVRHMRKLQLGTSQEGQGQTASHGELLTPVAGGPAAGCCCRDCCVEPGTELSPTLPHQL

As to `CC(C)C[C@H](NC(=O)[C@H](C)NC(=O)[C@H](CCCCN)NC(=O)[C@H](CCCNC(=N)N)NC(=O)[C@H](Cc1ccc(O)cc1)NC(=O)[C@H](CC(C)C)NC(=O)[C@H](CCCNC(=N)N)NC(=O)[C@H](C)NC(=O)[C@H](C)NC(=O)[C@H](CC(C)C)NC(=O)[C@H](CCCCN)NC(=O)[C@H](C)NC(=O)[C@@H](N)Cc1ccccc1)C(=O)N[C@@H](C)C(=O)N[C@@H](CCCNC(=N)N)C(=O)N[C@@H](CCC(N)=O)C(=O)N[C@@H](CC(C)C)C(=O)NCC(=O)N[C@H](C(=O)N[C@@H](C)C(=O)N[C@@H](C)C(N)=O)C(C)C`, the “Percentage kinase activity, ROCK-I” value in experiment [1] (peptide 100 μM) is given as 25 ± 2%. Besides, in experiment [2] (peptide 100 μM), the “Percentage kinase activity, MK5” value is reported as 131 ± 4%. The “Percentage kinase activity, PKCδ” value in experiment [3] (peptide 100 μM) is recorded as 40 ± 2%. In [4], this molecule registered an IC50 of 1800 nM. The “Percentage kinase activity, MLCK” value in [5] (peptide 100 μM) was determined as 1 ± 1%. Further, the “Percentage kinase activity, CaMKI” value in experiment [6] (peptide 100 μM) is 0 ± 2%. Moreover, the activity at 100 µM in experiment [7] (setting [13]) is 16 ± 5%. Moreover, the “Percentage kinase activity, IRAK4” value in [8] (peptide 100 μM) is on record as 13 ± 4%. In experiment [9] (peptide 100 μM), the “Percentage kinase activity, MK3” value stood at 10 ± 1%. Further, the “Percentage kinase activity, MK2” value in experiment [10] (peptide 100 μM) is recorded as 5 ± 2%. Moreover, the “Percentage kinase activity, SAPK2a (p38α)” value in experiment [11] (peptide 100 μM) is 30 ± 6%.

For the molecule `CC(C)C[C@H](NC(=O)[C@H](C)NC(=O)[C@H](CCCCN)NC(=O)[C@H](CCCNC(=N)N)NC(=O)[C@H](Cc1ccc(O)cc1)NC(=O)[C@H](CC(C)C)NC(=O)[C@H](CCCNC(=N)N)NC(=O)[C@H](C)NC(=O)[C@H](C)NC(=O)[C@H](CC(C)C)NC(=O)[C@H](CCCCN)NC(=O)[C@H](C)NC(=O)[C@H](Cc1ccccc1)NC(=O)[C@H](C)NC(=O)[C@@H](N)CCCCN)C(=O)N[C@@H](C)C(=O)N[C@@H](CCCNC(=N)N)C(=O)N[C@@H](CCC(N)=O)C(=O)N[C@@H](CC(C)C)C(=O)NCC(=O)N[C@H](C(=O)N[C@@H](C)C(=O)N[C@@H](C)C(N)=O)C(C)C`, the “Percentage kinase activity, ROCK-I” value in experiment [1] (peptide 100 μM) was 29 ± 0%. In [2] (peptide 100 μM), the “Percentage kinase activity, MK5” value was determined as 148 ± 4%. Further, the “Percentage kinase activity, PKCδ” value in [3] (peptide 100 μM) worked out at 24 ± 3%. Also, in experiment [4], the IC50 is 4400 nM. Further, the “Percentage kinase activity, MLCK” value in experiment [5] (peptide 100 μM) came to 2 ± 0%. The “Percentage kinase activity, CaMKI” value in experiment [6] (peptide 100 μM) worked out at 0 ± 2%. In experiment [7] (setting [13]), the activity at 100 µM was found to be 28 ± 4%. For the same molecule, the “Percentage kinase activity, IRAK4” value in experiment [8] (peptide 100 μM) was determined as 16 ± 2%. Besides, the “Percentage kinase activity, MK3” value in experiment [9] (peptide 100 μM) worked out at 17 ± 1%. In [10] (peptide 100 μM), the “Percentage kinase activity, MK2” value is given as 8 ± 1%. Moreover, the “Percentage kinase activity, SAPK2a (p38α)” value in [11] (peptide 100 μM) is reported as 59 ± 8%.

On to YARAAARQARAKALNRQLGVAA, for which the “Percentage kinase activity, ROCK-I” value in [1] (peptide 300 μM) was 95 ± 7%. Besides, in experiment [2] (peptide 300 μM), the “Percentage kinase activity, MK5” value was found to be 81 ± 3%. Also, the “Percentage kinase activity, PKCδ” value in [3] (peptide 300 μM) amounted to 105 ± 2%. For the same molecule, the “Percentage kinase activity, CaMKI” value in experiment [6] (peptide 300 μM) is listed as 8 ± 1%. Further, in [7], the “Percentage kinase activity, PKBβ” value was 96 ± 1%. Further, in experiment [8] (peptide 300 μM), the “Percentage kinase activity, IRAK4” value turned out to be 68 ± 3%. For the same molecule, in experiment [9] (peptide 300 μM), the “Percentage kinase activity, MK3” value is given as 19 ± 3%. In addition, the “Percentage kinase activity, MK2” value in experiment [10] (peptide 300 μM) is given as 10 ± 3%. The “Percentage kinase activity, SAPK2a (p38α)” value in [11] (peptide 300 μM) is given as 100 ± 6%.

YGRKKRRQRRR: the “inhibition of MK2 activity” value in experiment [12] (peptide 25 μM) came out at 47.7%; in experiment [12] (peptide 100 μM), 61.2%.

YARAAARQARAKALARQLGVAA: the “Percentage kinase activity, MK5” value in experiment [2] (peptide 300 μM) turned out to be 86 ± 2%. Besides, the “Percentage kinase activity, MLCK” value in [5] (peptide 300 μM) worked out at 9 ± 0%. Further, the “Percentage kinase activity, PKBβ” value in experiment [7] is reported as 17 ± 2%. In experiment [9] (peptide 300 μM), the “Percentage kinase activity, MK3” value stood at 5 ± 1%. For the same molecule, in experiment [10] (peptide 300 μM), the “Percentage kinase activity, MK2” value was 0 ± 0%.

`CC[C@H](C)[C@H](NC(=O)[C@H](CCCNC(=N)N)NC(=O)[C@H](CCCNC(=N)N)NC(=O)[C@H](CC(C)C)NC(=O)[C@H](Cc1c[nH]c2ccccc12)NC(=O)[C@H](C)NC(=O)[C@H](CCCCN)NC(=O)[C@@H](NC(=O)[C@H](CCCNC(=N)N)NC(=O)[C@H](CCCNC(=N)N)NC(=O)[C@H](CC(C)C)NC(=O)[C@@H](N)Cc1c[nH]c2ccccc12)[C@@H](C)CC)C(=O)N[C@@H](CCCCN)C(=O)N[C@@H](C)C(=O)N[C@@H](CC(C)C)C(=O)N[C@@H](CC(N)=O)C(=O)N[C@@H](CCCNC(=N)N)C(=O)N[C@@H](CCC(N)=O)C(=O)N[C@@H](CC(C)C)C(=O)NCC(=O)N[C@H](C(=O)N[C@@H](C)C(=O)N[C@@H](C)C(N)=O)C(C)C`: the “Percentage kinase activity, ROCK-I” value in experiment [1] (peptide 30 μM) amounted to 0 ± 1%. Further, the “Percentage kinase activity, MK5” value in experiment [2] (peptide 30 μM) was found to be 67 ± 9%. Also, the “Percentage kinase activity, PKCδ” value in [3] (peptide 30 μM) is reported as 11 ± 0%. In experiment [4], this molecule had an IC50 of 740 nM. For the same molecule, the “Percentage kinase activity, MLCK” value in experiment [5] (peptide 30 μM) stood at 4 ± 1%. The “Percentage kinase activity, CaMKI” value in experiment [6] (peptide 30 μM) is given as 9 ± 1%. In addition, in [7] (setting [13]), the activity at 30 µM was 18 ± 2%. The “Percentage kinase activity, IRAK4” value in [8] (peptide 30 μM) turned out to be 12 ± 1%. Besides, in experiment [9] (peptide 30 μM), the “Percentage kinase activity, MK3” value was 16 ± 2%. Also, the “Percentage kinase activity, MK2” value in [10] (peptide 30 μM) came to 2 ± 1%. Also, the “Percentage kinase activity, SAPK2a (p38α)” value in experiment [11] (peptide 30 μM) is listed as 61 ± 7%.

The record behind these values is article PMC2922070 (Journal of peptide science : an official publication of the …, 2009).
